Results reported in patent publication US9463189B2 (BPV Holdings, LLC, priority 2007, dated 2016).
Counter-ions that a name gives are not always drawn.

Assays:
[1] = system: NASH mice; experiment: Glucose tolerance testing (ipGTT) in NASH mice; format: in vivo, C57B1/6J mice
Procedure: Following 120-150 days on the HFD, mice in the NASH group were treated with Compound 2 (5 or 10 mg/Kg/day) or vehicle (10% Encapsin) for 42 days. Fasting and post prandial (PP) blood draws were taken at the beginning of the study (compound treatment) to identify and confirm the NASH group and during the study to evaluate various pharmacological responses. Since the NASH mice are severely hyperinsulinemic compared to NC mice, glucose tolerance testing (GTT, measures peripheral insulin resistance) was performed to evaluate the effect of Compound 2 on improvement of peripheral insulin sensitivity. […] Body weight and food intake was measured throughout the study.
Mice were then fasted overnight at 1700 hours for an experiment the following morning at 9:30 am. The animals were restrained in a towel to reduce handling stress and blood collection was from tail nick. Heat lamps were turned on 5 minutes prior to blood draws to warm animals slightly facilitating the flow of blood resulting in a decreased collection time. Blood glucose was measured using an Accu-check Compact Monitoring Kit (Roche Diagnostics, Indianapolis, Ind., Cat #3149137). Blood was also collected (˜100 μl) into EDTA microvettes (Sarstedt, Newton, N.C., Cat#16.444.100) for insulin ELISA analysis. After baseline blood collection, 2 g/kg Dextrose (Hospira, Lake Forest, Ill., NDC#0409-6648-02) was administered by intraperitoneal injection followed by glucose readings and blood draws (˜50 ul) at time points of 15, 30, 60, and 120 minutes post glucose challenge. Mice were kept in their home cages in between collection intervals.
Insulin fasting plasma samples were tested using Mercodia ultra sensitive mouse insulin ELISA: 2.5 μL EDTA plasma, ALPCO Diagnostics, Uppsala, Sweden, Cat #08-10-1150-99, LOQ (0.22-7.1 μg/L). Mouse JE/MCP-1 post prandial samples were collected at sacrifice. 12.5 μL EDTA plasma, R & D Systems, Minneapolis, Minn., Cat # MFE00, LOQ (15.6-1000 pg/mL).

[2] = system: PPAR; details: shown in US2006/0167012A1 and US2006/0205736A1; cited from earlier work
[3] = system: NASH mice; experiment: Hepatic fibrosis, Trichrome staining of liver sections; format: in vivo, C57B1/6J mice
From the text: (§1) Early Steatosis Model: C57B1/6J mice (22-39 days old) mice were used for the study. Mice were fed normal chow food (Lab Diet, 5P14Prolab Animal Diet, PMI Nutritional International, Brentwood, Mo., Cat# RMH 2500) or 58% high fat diet (HFD, 58 kcal % fat and corn starch with purple dye, Research Diets, New Brunswick, N.J., Cat# D12330 equivalent to Western diet) for 120-150 days. […] This group is referred to as the HFD-low body group in FIG. 1A (insulin & liver fat accumulation˜normal). On the other hand, one fifth of the mice gained 60-70% higher body weight (compared to normal chow fed mice) while on the same HFD diet (NASH group, very high insulin and liver fat) further shown in FIG. 1A. […]
The development of NASH was further confirmed using histological analyses of liver. The sections were analyzed for 1) hepatic steatosis 2) necroinflammation, and 3) fibrosis. Histological analyses of hepatic steatosis was assessed by quantitative image analysis of Oil Red O stain in liver sections and defined as the percentage of Oil Red ‘O’ positive area relative to the total image area.
Following 120-150 days on the HFD, mice in the NASH group were treated with Compound 2 (5 or 10 mg/Kg/day) or vehicle (10% Encapsin) for 42 days. […] Body weight and food intake was measured throughout the study. […]

[4] = Body weight loss in NASH mice; format: in vivo, C57B1/6J mice; details: oral administration, p<0.05 vs. vehicle
From the text: as §1, with “1A. The majority of the mice (three fifths) gained body weight as expected on the HFD (30-40% higher than the normal chow fed mice) and is referred to as the DIO group (normal to moderately high insulin and liver fat accumulation) as shown in FIG. 1A. Control animals (n=5) representative of the HFD-low body weight and the NASH groups were sacrificed prior to starting the rest of the animals on treatment with the Compound 2 (5 or 10 mg/Kg/day).” for “1A.”
Following 120-150 days on the HFD, mice in the NASH group were treated with Compound 2 (5 or 10 mg/Kg/day) or vehicle (10% Encapsin) for 42 days. […] Body weight and food intake was measured throughout the study.

[5] = oral administration, NASH mice, p<0.05 vs. vehicle

C[C@@H]1CN(Cc2ccc(OC(F)(F)F)cc2)C[C@H](C)N1S(=O)(=O)c1cccc2c1C[C@@H](C(=O)O)C2 [Compound 2, (S)-4-[cis-2,6-Dimethyl-4-(4-trifluoromethoxy-benzyl)-piperazine-1-sulfonyl]-indan-2-carboxylic acid tosylate]
insulin secretion during ipGTT ([1]; 21 days, 10 mg/Kg/day, compared to vehicle-treated animals): reduced insulin secretion | peripheral insulin resistance ([1]; 21 days, 10 mg/Kg/day, ipGTT, compared to vehicle-treated animals): improved peripheral insulin resistance | glucose disposal [1, 5]: improved glucose disposal | insulin sensitivity [1, 5]: improved insulin sensitivity | PPAR modulator activity [2]: PPAR modulators | attenuation of progression of fibrosis, Trichrome staining of liver sections ([3]; 10 mg/Kg/day, p<0.03, FIG. 3B): 41% | progression to fibrosis measured by histological presence of collagen deposits in the liver ([3]; oral administration, NASH mice, summary): attenuated progression to fibrosis | weight loss [4]: increased weight loss
